Entries after “also recorded” stand apart in the source; their conditions may differ.
What was measured:
[1] = test system: human liver TPMT; details: read-out: Apparent Km value for 6-MP; cited from earlier work
[2] = molecular target: T1, human kidney TPMT (Homo sapiens, UniProt P51580); details: cited from earlier work
T1 construct: to assay the enzyme in human kidney preparations; host or cells: human kidney
T1 sequence (P51580 1-245): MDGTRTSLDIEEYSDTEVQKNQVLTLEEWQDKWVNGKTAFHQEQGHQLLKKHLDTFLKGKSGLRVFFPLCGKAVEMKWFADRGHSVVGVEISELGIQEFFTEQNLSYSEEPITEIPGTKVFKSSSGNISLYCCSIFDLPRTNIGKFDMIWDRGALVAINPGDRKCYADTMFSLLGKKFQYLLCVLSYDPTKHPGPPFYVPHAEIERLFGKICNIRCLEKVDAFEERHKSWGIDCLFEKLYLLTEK

[3] = test system: patients with genetically low or undetectable RBC TPMT activity; details: patients lacking or with low TPMT activity; cited from earlier work
[4] = test system: TPMT; details: cited from earlier work
[5] = molecular target: T2, T84 cell TPMT (Homo sapiens, UniProt P51580); assay: DMHBA inhibition of TPMT activity, T84 cells; assay type: biochemical; details: DMHBA 0.01 μM to 10 mM
T2 construct: Cytosol from T84 cells did contain TPMT enzymatic activity; host or cells: T84 human colon carcinoma cells
T2 sequence (P51580 1-245): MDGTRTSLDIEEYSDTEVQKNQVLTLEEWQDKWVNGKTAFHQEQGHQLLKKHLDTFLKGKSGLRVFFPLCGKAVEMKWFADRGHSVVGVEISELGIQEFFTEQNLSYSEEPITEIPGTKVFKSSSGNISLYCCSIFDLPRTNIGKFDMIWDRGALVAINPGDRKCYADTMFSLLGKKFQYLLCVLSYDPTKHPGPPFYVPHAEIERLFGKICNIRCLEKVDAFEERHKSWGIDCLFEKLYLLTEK
Procedure: (§1) The University of Wisconsin Genetics Computer Group software package was used to analyze sequence information and to make comparisons between the sequence of the TPMT cDNA clone and the sequences of other cloned proteins. The GenBank Genetics Sequence Data Bank and the EMBL Nucleotide Sequence Database were used to search for nucleotide homologies, whereas the Swiss-Prot Protein Sequence Database was used to search for protein structural homologies. IC50 values were calculated with the GraphPAD Inplot program (GraphPAD, San Diego, Calif.).
(§2) TPMT activity in renal tissue was measured by the method of R. M. Weinshilboum et al., in Clin. Chim. Acta, 85, 323 (1978) as modified by L. C. Woodson et al., Biochem. Pharmacol., 32, 819 (1983) to assay the enzyme in human kidney preparations. […] Ado-Met as the methyl donor. Assay conditions for the measurement of TPMT in T84 human colon carcinoma cells and in COS-1 cells were identical with those used to measure the enzyme activity in human renal tissue. One unit of TPMT activity represented the formation of 1 nmol of 6-MMP per hr of incubation at 37° C.
T84 human colon carcinoma cells (American Type Culture Collection, Rockville, Md.) were grown to confluence in an equal volume mixture of Dulbecco's modified Eagle's medium (DMEM) and Ham's F12 media with 5% fetal calf serum. […]

[6] = molecular target: T1, human kidney TPMT; assay: DMHBA inhibition of TPMT activity, human kidney; assay type: biochemical; details: DMHBA 0.01 μM to 10 mM
Procedure: as §1
Renal tissue was obtained either during autopsy or from patients undergoing clinically indicated nephrectomies. Hepatic tissue was obtained from patients who underwent clinically indicated partial hepatectomies for the removal of primary or metastatic hepatic tumors. All tissue was obtained under guidelines approved by the Mayo Clinic Institutional Review Board. Macroscopically normal tissue was stored at -80° C., conditions under which TPMT activity is stable (C. L. Szumlanski et al., Pharmacogenetics, 2, 148 (1992); J. A. Van Loon et al., Drug Met. Disposit., 18, 632 (1990)). […]
TPMT activity in renal tissue was measured by the method of R. M. Weinshilboum et al., in Clin. Chim. […]

[7] = molecular target: T3, TPMT expressed in COS-1 cells transfected with T84 cell TPMT cDNA (Homo sapiens, UniProt P51580); assay: DMHBA inhibition of TPMT activity expressed in transfected COS-1 cells; assay type: biochemical; details: COS-1 cells transfected with cDNA clone; FIG. 6
T3 sequence (P51580 1-245): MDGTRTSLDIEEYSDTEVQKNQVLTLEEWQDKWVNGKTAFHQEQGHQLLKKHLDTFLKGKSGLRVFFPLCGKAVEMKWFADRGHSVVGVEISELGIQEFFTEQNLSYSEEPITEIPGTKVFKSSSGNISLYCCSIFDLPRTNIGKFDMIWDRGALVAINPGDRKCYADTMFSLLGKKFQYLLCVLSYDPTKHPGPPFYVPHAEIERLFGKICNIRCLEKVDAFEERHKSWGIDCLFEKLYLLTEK
Procedure: as §1, §2
Simian COS-1 cells were then plated in 100-mm dishes at a density of 1.5-1.8×10^6 cells/dish in DMEM with 10% fetal calf serum, and were allowed to grow overnight. Three dishes of cells were used for each transfection. […]

[8] = test system: human liver TPMT; details: cited from earlier work
[9] = molecular target: T1, human kidney TPMT; details: cited from earlier work; remark: listed apart in the source
[10] = molecular target: T2, T84 cell TPMT; assay: TPMT biochemical characteristics: pH optimum and apparent Km, T84 cells; details: 150 mM potassium phosphate buffer, seven pH values 5.5 to 8.5
Procedure: TPMT activity in renal tissue was measured by the method of R. M. Weinshilboum et al., in Clin. Chim. Acta, 85, 323 (1978) as modified by L. C. Woodson et al., Biochem. Pharmacol., 32, 819 (1983) to assay the enzyme in human kidney preparations. […] Assay conditions for the measurement of TPMT in T84 human colon carcinoma cells and in COS-1 cells were identical with those used to measure the enzyme activity in human renal tissue. One unit of TPMT activity represented the formation of 1 nmol of 6-MMP per hr of incubation at 37° C.

[11] = tissue stored at -80° C.; cited from earlier work
[12] = substrate: C[S+](CC[C@H](N)C(=O)O)C[C@H]1O[C@@H](n2cnc3c(N)ncnc32)[C@H](O)[C@@H]1O; assay: purified protein, by the assay type; details: other: T84 cells; 3.4 mM 6-MP, Ado-Met 0.78 to 25 μM; 37.0 °C
[13] = substrate: Sc1ncnc2nc[nH]c12; assay: purified protein, by the assay type; details: other: T84 cells; 25 μM Ado-Met, 6-MP 0.11 to 6.8 mM; 37.0 °C

## Sc1ncnc2nc[nH]c12 [6-MP, 6-mercaptopurine]
[1]
  Km: 580 µM
[2]; read-out: Apparent Km value for 6-MP
  Km: 300 µM
[3]
  risk of myelosuppression (in words): even more at risk for the occurrence of severe myelosuppression; also recorded: greatly increased risk for the development of life-threatening thiopurine-induced myelosuppression
[4]
  substrate for TPMT (in words): substrates for TPMT

## COc1cc(C(=O)O)cc(O)c1OC [DMHBA, 3,4-dimethoxy-5-hydroxybenzoic acid]
[5]
  IC50: 6.6 µM
[6]
  IC50: 7.8 µM
[7]
  IC50 value, TPMT activity expressed in COS-1 cells (in words): nearly identical to that of the TPMT present in T84 cells
[8]
  inhibition of human liver TPMT activity (in words): known to be inhibited
[8]; read-out: DMHBA IC50
  IC50: 8.5 µM
[9]
  inhibition of human kidney TPMT activity (in words): known to be inhibited

B1: T84 cell TPMT (Homo sapiens) (protein)
chain: MDGTRTSLDIEEYSDTEVQKNQVLTLEEWQDKWVNGKTAFHQEQGHQLLKKHLDTFLKGKSGLRVFFPLCGKAVEMKWFADRGHSVVGVEISELGIQEFFTEQNLSYSEEPITEIPGTKVFKSSSGNISLYCCSIFDLPRTNIGKFDMIWDRGALVAINPGDRKCYADTMFSLLGKKFQYLLCVLSYDPTKHPGPPFYVPHAEIERLFGKICNIRCLEKVDAFEERHKSWGIDCLFEKLYLLTEK
[10]
  pH Optimum: 6.5
[2]
  pH Optimum: 6.5
[11]
  stability of TPMT activity (in words): stable
[12]
  Km: 5.1 µM
[13]
  Km: 710 µM

Reference: patent publication US5470737A, “Stably-transformed cells expressing human thiopurine methyltransferase” (priority 1994, dated 1995)
